# According to ChEMBL document CHEMBL1773045, “Conjugate (MTC-220) of muramyl dipeptide analogue and paclitaxel prevents both tumor growth and metastasis in mice” (J Med Chem, 2011):
# The source made the active and inactive calls. No cut-off for these calls is given here.
# Assays:
# Mus musculus [1] = test: Toxicity in ICR mouse assessed as mortality at 112.5 mg/kg, iv; assay type: organism-based; set-up: dose 112.5 mg/kg, route intravenous; details: in vivo
# MDA-MB-231 = test: Antitumor activity against human MDA-MB-231 cells xenografted in nu/nu BALB/c mouse assessed as tumor growth inhibition at 10 mg/kg, ip qd for 24 days measured on day 25 relative to control; assay type: functional; details: MDA-MB-231, ip, route intraperitoneal, read-out: GI
# A2780 = test: Antitumor activity against human A2780 cells xenografted in nu/nu BALB/c mouse assessed as tumor growth inhibition at 30 mg/kg, ip qd for 12 days measured on day 25 relative to control; assay type: functional; details: route intraperitoneal, read-out: GI
# NCI-H460 = test: Antitumor activity against human H460 cells xenografted in nu/nu BALB/c mouse assessed as tumor growth inhibition at 10 mg/kg, ip qd for 24 days measured on day 25 relative to control; assay type: functional; details: route intraperitoneal, read-out: GI
# A549 [2] = test: Antitumor activity against human A549 cells xenografted in nu/nu BALB/c mouse assessed as tumor growth inhibition at 30 mg/kg, ip qd for 12 days measured on day 25 relative to control; assay type: functional; details: route intraperitoneal, read-out: GI
# NCI-H1975 = test: Antitumor activity against human NCI-H1975 cells xenografted in nu/nu BALB/c mouse assessed as tumor growth inhibition at 30 mg/kg, ip qd for 12 days measured on day 25 relative to control; assay type: functional; details: route intraperitoneal, read-out: GI
# Mus musculus [3] = test: Toxicity in human cancer cells xenografted in nu/nu BALB/c mouse assessed as body weight loss at 5 to 30 mg/kg, ip qd for 24 days; assay type: organism-based, Cancer cell lines; set-up: dose 5-30 mg/kg, route intraperitoneal; details: in vivo, 576 h
# [4] = system: Lewis lung carcinoma cell line; test: Antitumor activity against mouse LLC cells xenografted in C57BL/6 mouse assessed as tumor growth inhibition at 10 mg/kg, ip qd for 15 days relative to control; assay type: functional; details: 360 h, route intraperitoneal, read-out: GI
# 4T1 [5] = test: Antitumor activity against mouse 4T1 cells xenografted in […] mouse assessed as tumor growth inhibition at 5 mg/kg, ip qd for 28 days relative to control; assay type: functional; details: 4T1, ip, 672 h, route intraperitoneal, read-out: GI
# 4T1 [6] = test: Antimetastatic activity against mouse 4T1 cells xenografted in […] mouse assessed as inhibition of lung metastasis at 2.5 to 10 mg/kg, ip qd for 28 days; assay type: functional, organism-based
# Mus musculus [7] = test: Antimetastatic activity against mouse 4T1 cells xenografted in BALB/c mouse assessed as reduction of myeloid derived suppressor cells accumulation in bone marrow at 5 mg/kg, ip qd for 23 days by flow cytometry analysis relative to control; assay type: functional; set-up: scale not given: the % may be the effect or the level left; details: route intraperitoneal
# Mus musculus [8] = test: Antimetastatic activity against mouse 4T1 cells xenografted in BALB/c mouse assessed as reduction of TNFalpha mRNA expression in tumor at 5 mg/kg, ip qd for 23 days by RT-PCR analysis; assay type: functional, organism-based; set-up: dose 5 mg/kg
# HCT-8 = test: Cytotoxicity against human HCT8 cells after 72 hrs by MTT assay; assay type: functional, cell-based
# CCRF-CEM = test: Growth inhibition of human CCRF-CEM cells after 48 hrs by sulforhodamine B assay; assay type: functional
# SR = test: Growth inhibition of human SR cells after 48 hrs by sulforhodamine B assay; assay type: functional
# A549 [9] = test: Growth inhibition of human A549 cells after 48 hrs by sulforhodamine B assay; assay type: functional; details: A549, 48 h
# EKVX = test: Growth inhibition of human EKVX cells after 48 hrs by sulforhodamine B assay; assay type: functional
# HOP-92 = test: Growth inhibition of human HOP92 cells after 48 hrs by sulforhodamine B assay; assay type: functional; details: HOP-92, 48 h
# NCI-H23 = test: Growth inhibition of human NCI-H23 cells after 48 hrs by sulforhodamine B assay; assay type: functional; details: NCI-H23, 48 h
# NCI-H322M = test: Growth inhibition of human NCI-H322M cells after 48 hrs by sulforhodamine B assay; assay type: functional
# NCI-H522 = test: Growth inhibition of human NCI-H522 cells after 48 hrs by sulforhodamine B assay; assay type: functional; details: NCI-H522, 48 h
# HCC 2998 = test: Growth inhibition of human HCC2998 cells after 48 hrs by sulforhodamine B assay; assay type: functional; details: HCC 2998, 48 h
# HCT-15 = test: Growth inhibition of human HCT15 cells after 48 hrs by sulforhodamine B assay; assay type: functional; details: HCT-15, 48 h
# HT-29 = test: Growth inhibition of human HT-29 cells after 48 hrs by sulforhodamine B assay; assay type: functional; details: HT-29, 48 h
# KM12 = test: Growth inhibition of human KM12 cells after 48 hrs by sulforhodamine B assay; assay type: functional; details: KM12, 48 h
# SW-620 = test: Growth inhibition of human SW620 cells after 48 hrs by sulforhodamine B assay; assay type: functional; details: SW-620, 48 h
# SF-268 = test: Growth inhibition of human SF268 cells after 48 hrs by sulforhodamine B assay; assay type: functional; details: SF-268, 48 h
# SNB-19 = test: Growth inhibition of human SNB19 cells after 48 hrs by sulforhodamine B assay; assay type: functional; details: SNB-19, 48 h
# Malme-3M = test: Growth inhibition of human MALME-3M cells after 48 hrs by sulforhodamine B assay; assay type: functional
# SK-MEL-2 = test: Growth inhibition of human SK-MEL-2 cells after 48 hrs by sulforhodamine B assay; assay type: functional; details: SK-MEL-2, 48 h
# SK-MEL-28 = test: Growth inhibition of human SK-MEL-28 cells after 48 hrs by sulforhodamine B assay; assay type: functional; details: SK-MEL-28, 48 h
# UACC-257 = test: Growth inhibition of human UACC257 cells after 48 hrs by sulforhodamine B assay; assay type: functional; details: UACC-257, 48 h
# OVCAR-4 = test: Growth inhibition of human OVCAR4 cells after 48 hrs by sulforhodamine B assay; assay type: functional; details: OVCAR-4, 48 h
# A498 = test: Growth inhibition of human A498 cells after 48 hrs by sulforhodamine B assay; assay type: functional; details: A498, 48 h
# ACHN = test: Growth inhibition of human ACHN cells after 48 hrs by sulforhodamine B assay; assay type: functional
# CAKI-1 = test: Growth inhibition of human Caki1 cells after 48 hrs by sulforhodamine B assay; assay type: functional; details: CAKI-1, 48 h
# SN12C = test: Growth inhibition of human SN12C cells after 48 hrs by sulforhodamine B assay; assay type: functional
# TK-10 = test: Growth inhibition of human TK10 cells after 48 hrs by sulforhodamine B assay; assay type: functional; details: TK-10, 48 h
# DU-145 = test: Growth inhibition of human DU145 cells after 48 hrs by sulforhodamine B assay; assay type: functional; details: DU-145, 48 h
# MCF7 = test: Growth inhibition of human MCF7 cells after 48 hrs by sulforhodamine B assay; assay type: functional; details: MCF7, 48 h
# NCI/ADR-RES = test: Growth inhibition of human NCI/ADR-RES cells after 48 hrs by sulforhodamine B assay; assay type: functional
# MDA-MB-435 = test: Growth inhibition of human MDA-MB-435 cells after 48 hrs by sulforhodamine B assay; assay type: functional; details: MDA-MB-435, 48 h
# BT-549 = test: Growth inhibition of human BT549 cells after 48 hrs by sulforhodamine B assay; assay type: functional; details: BT-549, 48 h
structure (smiles),measurement,setting,value
CC(=O)O[C@H]1C(=O)[C@@]2(C)[C@H]([C@H](OC(=O)c3ccccc3)[C@]3(O)C[C@H](OC(=O)[C@H](OC(=O)CCC(=O)NCCCC[C@H](NC(=O)CC[C@H](NC(=O)[C@H](C)NC(=O)/C=C/c4ccc(Cl)cc4)C(N)=O)C(N)=O)[C@H](NC(=O)c4ccccc4)c4ccccc4)C(C)=C1C3(C)C)[C@]1(OC(C)=O)CO[C@@H]1C[C@@H]2O,Activity,Mus musculus [1],Non-toxic
same,inhibition in vivo at 10 mg/kg,MDA-MB-231,37.3%
same,inhibition in vivo at 30 mg/kg,A2780,45.2%
same,inhibition in vivo at 10 mg/kg,NCI-H460,17.3%
same,inhibition in vivo at 30 mg/kg,A549 [2],79.9%
same,inhibition in vivo at 30 mg/kg,NCI-H1975,93.1%
same,Activity,Mus musculus [3],Non-toxic
same,inhibition in vivo at 10 mg/kg,[4],33.1%
same,inhibition in vivo at 5 mg/kg,4T1 [5],33.5%
same,growth inhibition (GI),4T1 [6],Active
same,Activity,Mus musculus [7],45.3%
same,Activity,Mus musculus [8],Active
same,Activity,HCT-8,Active
same,GI50,CCRF-CEM,< 10 nM
same,GI50,SR,< 10 nM
same,GI50,A549 [9],< 10 nM
same,GI50,EKVX,< 10 nM
same,GI50,HOP-92,< 10 nM
same,GI50,NCI-H23,< 10 nM
same,GI50,NCI-H322M,< 10 nM
same,GI50,NCI-H522,< 10 nM
same,GI50,HCC 2998,< 10 nM
same,GI50,HCT-15,< 10 nM
same,GI50,HT-29,< 10 nM
same,GI50,KM12,< 10 nM
same,GI50,SW-620,< 10 nM
same,GI50,SF-268,< 10 nM
same,GI50,SNB-19,< 10 nM
same,GI50,Malme-3M,< 10 nM
same,GI50,SK-MEL-2,< 10 nM
same,GI50,SK-MEL-28,< 10 nM
same,GI50,UACC-257,< 10 nM
same,GI50,OVCAR-4,< 10 nM
same,GI50,A498,< 10 nM
same,GI50,ACHN,< 10 nM
same,GI50,CAKI-1,< 10 nM
same,GI50,SN12C,< 10 nM
same,GI50,TK-10,< 10 nM
same,GI50,DU-145,< 10 nM
same,GI50,MCF7,< 10 nM
same,GI50,NCI/ADR-RES,< 10 nM
same,GI50,MDA-MB-435,< 10 nM
same,GI50,BT-549,< 10 nM
